# Laboratory results taken from patent publication US20180271930A1, “METHOD FOR RAISING POULTRY” (priority 2015, published 2018).
# Columns and labels:
# Pax7 = test: Examination 3: Pax7 expression in skeletal muscle cells in differentiation medium; type: cell-based, broiler chicks (Ross 308); conditions: 100 μM GSSG in differentiation medium; 12 hours after start of culture; FIG. 2D, n=6
# From the text: FIGS. 2A to 2D illustrate graphs showing the expression levels of genes related to skeletal muscle cell differentiation upon the addition of GSSG during the skeletal muscle cell differentiation period in Examination 3 (n=6). […] A relative value of the expression level of each factor is expressed as an average±standard deviation of values obtained by dividing the expression levels of each factor by the expression level of RPS9. Each different symbol denotes a significant difference in the […] multiple comparison test (P<0.05). Oxidized glutathione (GSSG) was added to a differentiation-promoting culture medium system of skeletal muscle cells collected from newly hatched broiler chicks (Ross 308, Ross Breeders Ltd.) (under culture conditions simulating the state of skeletal muscle cells of neonatal chicks), phosphorylation of signal factors was analyzed by Western blot, and the differentiation inhibition mechanism was investigated. Expression levels of MyoD, myostatin, IGF-I, and Pax7 as genes involved in myogenesis were determined. Pax7 is a muscle satellite cell marker. […] The expression level of Pax7 was determined by the method described in Examination 1 except that the primer set used herein was a primer set listed in the table below. […] The cells were recovered 0, 12, and 24 hours later, and the expression levels of genes involved in myogenesis were determined. […]
# myogenin = test: Examination 1: myogenin gene expression in superficial pectoral muscle (real-time PCR, relative to RPS9); type: in vivo, broiler chicks of the Chunky breed (Ross 308); conditions: 3 days old, GSSG addition group (0.01% or 0.1% feed), FIG. 1B, n=6
# From the text: (§1) FIGS. 1A to 1D illustrate graphs showing the expression of genes related to skeletal muscle cell differentiation in superficial pectoral muscles upon administration of each feed composition in Examination 1 (n=6). […] A relative value of the expression level of each factor is expressed as an average±standard deviation of values obtained by dividing the expression levels of each factor by the expression level of RPS9. Each different symbol denotes a significant difference in the […] multiple comparison test (P<0.05). Newly hatched broiler chicks of the Chunky breed (Ross 308, Ross Breeders Ltd.) were tested. […] Real-time PCR was performed by adding cDNA, a primer set, and other necessary reagents to wells of a 96-well PCR plate, preheating the plate using a thermal cycler at 95° C. for 3 minutes, followed by 35 cycles of steps of denaturation, annealing, and elongation in a repetitive manner, and measurement of […] after the elongation step for each cycle. The expression level of each gene was designated as a relative value obtained by dividing the determined amount of an amplification product of IGF-I, myostatin, MyoD, or myogenin by the amount of an amplification product of RPS9. […] The amount of GSSG used herein was determined in terms of the amount of free oxidized glutathione. […]
# myostatin = test: Examination 1: myostatin gene expression in superficial pectoral muscle (real-time PCR, relative to RPS9); type: in vivo, broiler chicks of the Chunky breed (Ross 308); conditions: 3 days old, GSSG addition group (0.01% or 0.1% feed), FIG. 1C, n=6
# From the text: as §1
# [1] = Examination 6: body weight at 21 days old after GSSG feed (0.01% or 0.05%) for 3 days; type: in vivo, broiler chicks; conditions: n = 12
# Procedure: Newly hatched broiler chicks (Ross Breeders Ltd.) were fed with a feed composition containing GSSG at 0.01% by mass or 0.05% by mass for 3 days. […] Three groups, which were a control group, a GSSG addition group (0.01% by mass), and a GSSG addition group (0.05% by mass), were set. In each group, 6 males and 6 females were tested. Chicks received at 0 day old were fed with a test feed composition (initial-phase feed composition) during 72 hours after the receipt. […] Their body weights were measured. A feed composition used as an initial-phase feed composition, for which the level of GSSG was set to 0.01% by mass or […], is a composition prepared by adding GSSG at 0.01% by mass or 0.1% by mass to a composition (ME3,100 kcal/kg, CP21) containing corn, soybean meal, corn gluten meal, fat and oil, calcium carbonate (powder), tricalcium phosphate, dietary salt, DL-methionine, L-lysine chloride, choline chloride, and vitamins/minerals in accordance with the NRC requirements. The feed composition (ME3,100 kcal/kg, CP21) free of GSSG used in Examination 1 was used for the control group. […] An ammonium salt was used as GSSG. The GSSG contained 95.6% by mass of oxidized glutathione, and the content of reduced glutathione mixed therein was 0.1% by mass or less.
substance,measurement,setting,value
oxidized glutathione [GSSG],expression of Pax7 vs control group,Pax7,significantly increased
same,myogenin expression level vs control group,myogenin,significant decreases
same,myostatin expression level vs control group,myostatin,significant decreases
same,21-day-old weight,[1]; GSSG 0.01% by mass in feed for 3 days,961 ± 84 g
same,21-day-old weight,[1]; GSSG 0.05% by mass in feed for 3 days,986 ± 67 g
